Source: EP4782453A1 (Beyang Therapeutics Co., Ltd., priority 2023, dated 2025)
Read-outs that look alike come from different tables or passages of the source.

Target: T1, Menin-MLL (Homo sapiens, UniProt O00255)
T1 construct: His-Menin (M1-L615 end); purchased BIORTUS BP9210
T1 sequence (O00255 1-615 isoform O00255-1): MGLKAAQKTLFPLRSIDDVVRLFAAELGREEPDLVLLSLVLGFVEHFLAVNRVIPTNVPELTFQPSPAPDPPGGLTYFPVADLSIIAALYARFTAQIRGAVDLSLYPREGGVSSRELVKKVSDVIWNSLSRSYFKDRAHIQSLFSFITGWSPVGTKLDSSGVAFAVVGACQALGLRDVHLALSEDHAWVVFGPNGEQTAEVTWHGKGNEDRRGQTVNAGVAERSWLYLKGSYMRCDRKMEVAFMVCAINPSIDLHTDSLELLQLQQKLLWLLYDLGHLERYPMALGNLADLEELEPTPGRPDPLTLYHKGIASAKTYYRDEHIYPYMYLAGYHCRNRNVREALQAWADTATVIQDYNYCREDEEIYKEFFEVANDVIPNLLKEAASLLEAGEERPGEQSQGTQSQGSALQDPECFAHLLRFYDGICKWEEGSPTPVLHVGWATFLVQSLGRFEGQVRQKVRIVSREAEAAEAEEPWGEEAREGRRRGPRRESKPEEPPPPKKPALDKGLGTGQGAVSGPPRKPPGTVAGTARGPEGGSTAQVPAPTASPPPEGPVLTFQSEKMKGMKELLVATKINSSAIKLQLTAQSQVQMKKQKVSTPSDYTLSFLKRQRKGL
Assay: Inhibitory activity against Menin-MLL binding (fluorescence polarization)
Settings: 150 nM His-Menin, 15 nM FITC-MLL, 25°C for 60 min
Method: • His-Menin (M1-L615 end), purchased from BIORTUS, Catalog Number: BP9210; and • FITC-MLL4-43, purchased from GenScript, Catalog Number: C491HFF190-3/PE1324.
In a 10 µL reaction solution (20 mM HEPES, pH 7.5, 50 mM NaCl, 1 mM DTT, 0.01% BSA) containing any compound from the examples, 150 nM His-Menin was added to a 384-well plate (Corning, Model: 4514). Each concentration was set up in duplicate wells. After centrifugation at 1000 RPM for 1 min, the plate was incubated at 25°C for 15 min. Then, 15 nM […] (20 mM HEPES, pH 7.5, 50 mM NaCl, 1 mM DTT, 0.01% BSA) was added to a 384-well plate. After centrifugation at 1000 RPM for 1 min, the reaction proceeded at 25°C for 60 min. Changes in fluorescence polarization were measured using a plate reader (PerkinElmer, Envision 2104). Based on the measured signals, the binding inhibition rate of the compound at each concentration was calculated, and the IC50 (half-maximal inhibitory concentration) of the compound was determined using statistical analysis software GraphPad Prism (GraphPad Software, Inc.) by means of a nonlinear fitting formula: 4-Parameter Logistic Model or Sigmoidal Dose-Response Model: Y = Bottom + (Top−Bottom)/(1 + 10^((LogIC50−X) × Hill Slope)), [formula] in which X indicates the logarithm of compound concentration, Y indicates a fluorescence polarization mP value, and Top and Bottom indicate the maximum and minimum readouts of fluorescence polarization mP values. Table 1: Inhibitory Activity of Compounds Against Menin-MLL Binding

[1] = Menin-MLL IC50, fluorescence polarization
[2] = fluorescence polarization, read-out: Menin-MLL IC50

Compound | IC50 [1] | IC50 [2]
CCN(C(=O)c1cc(F)ccc1-c1cc(N2CCN(C(=O)C3NC4CCC3CC4)CC2)cn2c(C)ncc12)C(C)C [Compound 59, N-ethyl-5-fluoro-2-(3-methyl-6-{4-[(1R,3S,4S)-2-azabicyclo[2.2.2]octan-3-carbonyl]piperazin-1-yl}imidazo[1,5-a]pyridin-8-yl)-N-(isopropyl)benzamide] | 23 nM | 
CCN(C(=O)c1cc(F)ccc1-c1cc(C2(F)CCN(C[C@H]3CC[C@H](NS(=O)(=O)CC)CC3)C2)cc2c1cnn2C)C(C)C (stereo partly drawn) [Compound 61, N-ethyl-5-fluoro-2-[6-(3-fluoro-1-{[(1r,4r)-4-ethanesulfonamidocyclohexyl]methyl}pyrrolidin-3-yl)-1-methyl-1H-indazol-4-yl]-N-(isopropyl)benzamide] | 58 nM | 
CCN(C(=O)c1cc(F)ccc1-c1cc(N2CCN(CC[C@H]3CC[C@H](NS(=O)(=O)CC)CC3)CC2)cn2c(C)ncc12)C(C)C [Compound 65, N-ethyl-5-fluoro-2-[3-methyl-6-(4-{2-[(1r,4r)-4-ethanesulfonamidocyclohexyl]ethyl}piperazine-1-yl)imidazo[1,5-a]pyridin-8-yl]-N-(isopropyl)benzamide] | 136 nM | 
CCN(C(=O)c1cc(F)ccc1-c1cc(C2(F)CCN(C[C@]3(O)CC[C@@H](NS(=O)(=O)CC)CC3)C2)cc2c1cnn2C)C(C)C (stereo partly drawn) [Compound 68, N-ethyl-5-fluoro-2-[6-(3-fluoro-1-{[(1s,4s)-4-ethanesulfonamido-1-hydroxylcyclohexyl]methyl}pyrrolidin-3-yl)-1-methyl-1H-indazol-4-yl]-N-(isopropyl)benzamide] | 298 nM | 
CCN(C(=O)c1cc(F)ccc1-c1cc(C2CCN(C[C@H]3CC[C@H](NS(=O)(=O)CC)CC3)C2)cn2c(C3CC3)ncc12)C(C)C (stereo partly drawn) [Compound 69, 2-[3-cyclopropyl-6-(1-{[(1r,4r)-4-ethanesulfonamidocyclohexyl]methyl}pyrrolidin-3-yl)imidazo[1,5-a]pyridin-8-yl]-N-ethyl-5-fluoro-N-(isopropyl)benzamide] | 222 nM | 
CCN(C(=O)c1cc(F)ccc1-c1cc(N2CCN(CCc3ccc(-c4cc(OC)c(OC)nn4)cc3)CC2)cn2c(C)ncc12)C(C)C [Compound 70, 2-[6-(4-{2-[4-(5,6-dimethoxypyridazin-3-yl)phenyl]ethyl}piperazin-1-yl)-3-methylimidazo[1,5-a]pyridin-8-yl]-N-ethyl-5-fluoro-N-(isopropyl)benzamide] |  | 93 nM
CCN(C(=O)c1cc(F)ccc1-c1cc(C2=CCC(NCc3ccc(-c4cc(OC)c(OC)nn4)cc3)CC2)n2ccncc12)C(C)C (stereo not drawn) [Example 4, 2-{6-[4-({[4-(5,6-dimethoxypyridazin-3-yl)phenyl]methyl}amino)cyclohexyl-1-ene-1-yl]pyrrolo[1,2-a]pyrazin-8-yl}-N-ethyl-5-fluoro-N-isopropylbenzamide] |  | 17.5 nM
CCN(C(=O)c1cc(F)ccc1-c1cc([C@@H]2CCN(C[C@H]3CC[C@H](NS(=O)(=O)CC)CC3)C2)nc2c1cnn2C)C(C)C [Example 11-1] | 744 nM | 
CCN(C(=O)c1cc(F)ccc1-c1cc([C@H]2CCN(C[C@H]3CC[C@H](NS(=O)(=O)CC)CC3)C2)nc2c1cnn2C)C(C)C [Example 11-2, N-ethyl-5-fluoro-2-{1-methyl-6-[(3S)-1-{[(1r,4r)-4-ethanesulfonamidocyclohexyl]methyl}pyrrolidin-3-yl]-1H-pyrazolo[3,4-b]pyridin-4-yl}-N-(isopropyl)benzamide] | 65.5 nM | 
C=C1C[C@@H]2CC[C@H]1[C@@H](C(=O)N1CCC(c3cc(-c4ccc(F)cc4C(=O)N(CC)C(C)C)c4cncn4c3)C1)N2 (stereo partly drawn) [Example 23, N-ethyl-5-fluoro-2-(6-{1-[(1S,3S,4R)-5-methylene-2-azabicyclo[2.2.2]octan-3-carbonyl]pyrrolidin-3-yl}imidazo[1,5-a]pyridin-8-yl)-N-(isopropyl)benzamide] |  | 102 nM
CCN(C(=O)c1cc(F)ccc1-c1cc(C2CCN(CC3CCC(NC(=O)OC(C)(C)C)CC3)C2)cc2cncn12)C(C)C (stereo not drawn) [Example 24, N-(4-{[3-(5-{2-[ethyl(isopropyl)aminoformyl]-4-fluorophenyl}imidazo[1,5-a]pyridin-7-yl)pyrrolidin-1-yl]methyl}cyclohexyl)tert-butyl carbamate] |  | 23 nM
CCN(C(=O)c1cc(F)ccc1-c1cc([C@H]2CCN(C[C@H]3CC[C@H](NS(=O)(=O)CC)CC3)C2)cc2cncn12)C(C)C [Example 25-2, N-ethyl-5-fluoro-N-isopropyl-2-{7-[(3R)-1-{[(1r,4r)-4-ethanesulfonamidocyclohexyl]methyl}pyrrolidin-3-yl]imidazo[1,5-a]pyridin-5-yl}benzamide] | 21 nM | 
CCN(C(=O)c1cc(F)ccc1-c1cc(C2CCN(C[C@H]3CC[C@H](N4CCOC4=O)CC3)C2)nc2c1cnn2C)C(C)C (stereo partly drawn) [Example 28] |  | 118 nM
CCN(C(=O)c1cc(F)ccc1-c1cc(C2CCN(C(=O)[C@H]3N[C@@H]4CC[C@H]3C4)C2)cc2c1cnn2C)C(C)C (stereo partly drawn) [Example 31, 2-(6-{1-[(1R,3S,4S)-2-azabicyclo[2.2.1]heptan-3-carbonyl]pyrrolidin-3-yl}-1-methyl-1H-indazol-4-yl)-N-ethyl-5-fluoro-N-(isopropyl)benzamide] |  | 275 nM
CCN(C(=O)c1cc(F)ccc1-c1cc(C2(F)CN(C(=O)[C@H]3N[C@@H]4CC[C@H]3C4)C2)cn2cncc12)C(C)C [Example 34, 2-(6-{1-[(1R,3S,4S)-2-azabicyclo[2.2.1]heptan-3-carbonyl]-3-fluoroazacyclobutan-3-yl}imidazo[1,5-a]pyridin-8-yl)-N-ethyl-5-fluoro-N-(isopropyl)benzamide] |  | 168 nM
CCN(C(=O)c1cc(F)ccc1-c1cc(N2CCC(NC[C@H]3CC[C@H](N4CCOC4=O)CC3)CC2)cc2c1cnn2C)C(C)C [Example 36, N-ethyl-5-fluoro-2-{1-methyl-6-[4-({[(1r,4r)-4-(2-oxo-1,3-oxazolidin-3-yl)cyclohexyl]methyl}amino)piperidin-1-yl]-1H-indazol-4-yl}-N-(isopropyl)benzamide] | 156 nM | 
CCN(C(=O)c1cc(F)ccc1-c1cc(C2CCN(C(=O)[C@H]3N[C@@H]4CC[C@H]3C4)C2)cn2cncc12)C(C)C (stereo partly drawn) [Example 38, 2-(6-{1-[(1R,3S,4S)-2-azabicyclo[2.2.1]heptan-3-carbonyl]pyrrolidin-3-yl}imidazo[1,5-a]pyridin-8-yl)-N-ethyl-5-fluoro-N-(isopropyl)benzamide] |  | 128 nM
CCN(C(=O)c1cc(F)ccc1-c1cc(C2CCN(Cc3ccc(N4CCOC4=O)cc3)C2)cn2cncc12)C(C)C (stereo not drawn) [Example 41] |  | 92 nM
CCN(C(=O)c1cc(F)ccc1-c1cc(C2CCN(CC3CCCCC3)C2)cn2cncc12)C(C)C (stereo not drawn) [Example 44] |  | 29.5 nM
CCN(C(=O)c1cc(F)ccc1-c1cc(C2CCN(C[C@H]3CC[C@H](NC(C)=O)CC3)C2)cn2cncc12)C(C)C (stereo partly drawn) [Example 45] |  | 95.5 nM
CCN(C(=O)c1cc(F)ccc1-c1cc(C2CCN(CC3CCN(c4nnc(C)o4)CC3)C2)cn2cncc12)C(C)C (stereo not drawn) [Example 46] |  | 62.5 nM
CCN(C(=O)c1cc(F)ccc1-c1cc(C2CCN(C[C@H]3CC[C@H](N4CCOC4=O)CC3)C2)cn2cncc12)C(C)C (stereo partly drawn) [Example 47] |  | 25 nM
CCN(C(=O)C(C)C)c1cc(F)ccc1-c1cc(N2CCN(C(=O)C3NC4CCC3CC4)CC2)cn2c(C)ncc12 [Example 71, N-ethyl-N-[5-fluoro-2-(3-methyl-6-{4-[(1R,3S,4S)-2-azabicyclo[2.2.2]octan-3-carbonyl]piperazin-1-yl}imidazo[1,5-a]pyridin-8-yl)phenyl]-2-methylpropionamide] |  | 15 nM
CCN(C(=O)c1cc(F)ccc1-c1cc(N2CCN(C(=O)C3NC4CCC3CC4)CC2)cn2c(C=O)ncc12)C(C)C [Example 76, N-ethyl-5-fluoro-2-(3-formyl-6-{4-[(1R,3S,4S)-2-azabicyclo[2.2.2]octan-3-carbonyl]piperazin-1-yl}imidazo[1,5-a]pyridin-8-yl)-N-(isopropyl)benzamide] | 40 nM | 
